{
  "source": "patent US8114885B2",
  "about": "“Chemical compounds” (GlaxoSmithKline LLC, priority 2000, dated 2012)",
  "note": "Counter-ions that a name gives are not always drawn.",
  "data": [
    {"system": "HUVEC", "test": "Human Umbilical Vein Endothelial Cell (HUVEC) proliferation assay (BrdU incorporation)", "format": "cell-based", "details": "VEGF-stimulated HUVEC, 72 hrs, read-out: Inhibition of HUVEC proliferation IC50", "description": "Human Umbilical Vein Endothelial Cell (HUVEC) Proliferation Assay (BrdU Incorporation) Materials\nHUVEC cells and EGM-MV (Endothelial cell growth medium—microvascular) were purchased from Clonetics (San Diego, Calif.). VEGF and bFGF were purchased from R&D Systems (Minneapolis, Minn.). Anti-BrdU antibody was obtained from Chemicon International (Temecula, Calif.).\nHUVECs were routinely maintained in EGM-MV medium and were used within passage 7. HUVECs were plated at a density of 2500 cells/well in M199 medium containing 5% FBS (Hyclone) in type I collagen coated plate (Becton Dickinson). The plate was incubated at 37° C. overnight. The medium was removed by aspiration, and test compounds were added to each well in a volume of 0.1 ml/well in serum-free M199 medium. Compound concentrations ranged from 1.5 nM to 30 micromolar. The plate was incubated for 30 min at 37° C. Another 0.1 ml of serum-free M199 medium containing BSA and VEGF (or bFGF) was added to give a final concentration of 0.1% BSA and 10 ng/ml VEGF (0.3 ng/ml bFGF). The plate was incubated at 37° C. for 72 hrs. BrdU was added to each well after the first 48 hrs to give a concentration of 10 micromolar. The calorimetric ELISA assay was performed according to manufacturer's (Roche Molecular Sciences) instructions, with detection by absorbance reading at 450 nm. Results were plotted as concentration of test compound vs. absorbance to give an IC50 value for inhibition of BrdU incorporation.", "units": {"IC50": "nM"}, "values": [
      {"smiles": "CCS(=O)(=O)c1ccc(OC)c(Nc2ncc(F)c(N(C)c3ccc4c(C)n[nH]c4c3)n2)c1", "note": "[Example 1, N^2-[5-(ethylsulfonyl)-2-methoxyphenyl]-5-fluoro-N^4-methyl-N^4-(3-methyl-1H-indazol-6-yl)-2,4-pyrimidinediamine]", "IC50": "201 to 500"},
      {"smiles": "CNS(=O)(=O)c1ccc(OC)c(Nc2ncc(F)c(N(C)c3ccc4c(C)n[nH]c4c3)n2)c1", "note": "[Example 2, 3-({5-fluoro-4-[methyl(3-methyl-1H-indazol-6-yl)amino]-2-pyrimidinyl}amino)-4-methoxy-N-methylbenzenesulfonamide]", "IC50": "1 to 200"},
      {"smiles": "Cc1n[nH]c2cc(N(C)c3nc(Nc4cccc(CS(C)(=O)=O)c4)ncc3F)ccc12", "note": "[Example 3, 5-fluoro-N^4-methyl-N^4-(3-methyl-1H-indazol-6-yl)-N^2-{3-[(methylsulfonyl)methyl]phenyl}-2,4-pyrimidinediamine]", "IC50": "1 to 200"},
      {"smiles": "COc1ccc(S(=O)(=O)NC(C)C)cc1Nc1ncc(F)c(N(C)c2ccc3c(C)n[nH]c3c2)n1", "note": "[Example 4, 3-({5-fluoro-4-[methyl(3-methyl-1H-indazol-6-yl)amino]-2-pyrimidinyl}amino)-N-isopropyl-4-methoxybenzenesulfonamide]", "IC50": "201 to 500"},
      {"smiles": "COc1ccc(S(=O)(=O)C(C)C)cc1Nc1ncc(F)c(N(C)c2ccc3c(C)n[nH]c3c2)n1", "note": "[Example 5, 5-fluoro-N^2-[5-(isopropylsulfonyl)-2-methoxyphenyl]-N^4-methyl-N^4-(3-methyl-1H-indazol-6-yl)-2,4-pyrimidinediamine]", "IC50": "201 to 500"},
      {"smiles": "Cc1ccc(Nc2ncc(F)c(N(C)c3ccc4c(C)n[nH]c4c3)n2)cc1NS(C)(=O)=O", "note": "[Example 6, N-[5-({5-fluoro-4-[methyl(3-methyl-1H-indazol-6-yl)amino]-2-pyrimidinyl}amino)-2-methylphenyl]methanesulfonamide]", "IC50": "201 to 500"},
      {"smiles": "Cc1n[nH]c2cc(N(C)c3nc(Nc4ccc(S(C)(=O)=O)cc4)ncc3F)ccc12", "note": "[Example 7, 5-fluoro-N^4-methyl-N^4-(3-methyl-1H-indazol-6-yl)-N^2-[4-(methylsulfonyl)phenyl]-2,4-pyrimidinediamine]", "IC50": "201 to 500"},
      {"smiles": "CCc1n[nH]c2cc(N(C)c3nc(Nc4cccc(CS(C)(=O)=O)c4)ncc3F)ccc12", "note": "[Example 8, N^4-(3-ethyl-1H-indazol-6-yl)-5-fluoro-N^4-methyl-N^2-{3-[(methylsulfonyl)methyl]phenyl}-2,4-pyrimidinediamine]", "IC50": "201 to 500"},
      {"smiles": "Cc1n[nH]c2cc(N(C)c3nc(Nc4ccc(S(N)(=O)=O)cc4)ncc3F)ccc12", "note": "[Example 9, 4-({5-fluoro-4-[methyl(3-methyl-1H-indazol-6-yl)amino]-2-pyrimidinyl}amino)benzenesulfonamide]", "IC50": "201 to 500"},
      {"smiles": "CCN(c1ccc2c(C)n[nH]c2c1)c1nc(Nc2cc(S(C)(=O)=O)ccc2OC)ncc1F", "note": "[Example 10, N^4-ethyl-5-fluoro-N^2-[2-methoxy-5-(methylsulfonyl)phenyl]-N^4-(3-methyl-1H-indazol-6-yl)-2,4-pyrimidinediamine]", "IC50": "> 1000"},
      {"smiles": "CNS(=O)(=O)Cc1ccc(Nc2ncc(F)c(N(C)c3ccc4c(C)n[nH]c4c3)n2)cc1", "note": "[Example 11, [4-({5-fluoro-4-[methyl(3-methyl-1H-indazol-6-yl)amino]-2-pyrimidinyl}amino)phenyl]-N-methylmethanesulfonamide]", "IC50": "201 to 500"},
      {"smiles": "Cc1n[nH]c2cc(N(C)c3nc(Nc4cccc(CS(=O)(=O)C(C)C)c4)ncc3F)ccc12", "note": "[Example 12, 5-fluoro-N^2-{3-[(isopropylsulfonyl)methyl]phenyl}-N^4-methyl-N^4-(3-methyl-1H-indazol-6-yl)-2,4-pyrimidinediamine]", "IC50": "1 to 200"},
      {"smiles": "COc1ccc(C(N)=O)cc1Nc1ncc(F)c(N(C)c2ccc3c(C)n[nH]c3c2)n1", "note": "[Example 13, 3-({5-fluoro-4-[methyl(3-methyl-1H-indazol-6-yl)amino]-2-pyrimidinyl}amino)-4-methoxybenzamide]", "IC50": "201 to 500"},
      {"smiles": "COc1cc(S(N)(=O)=O)ccc1Nc1ncc(F)c(N(C)c2ccc3c(C)n[nH]c3c2)n1", "note": "[Example 14, 4-({5-fluoro-4-[methyl(3-methyl-1H-indazol-6-yl)amino]-2-pyrimidinyl}amino)-3-methoxybenzenesulfonamide]", "IC50": "1 to 200"},
      {"smiles": "Cc1n[nH]c2cc(Nc3ncnc(Nc4cccc(CS(C)(=O)=O)c4)n3)ccc12", "note": "[Example 15, N^2-(3-methyl-1H-indazol-6-yl)-N^4-{3-[(methylsulfonyl)methyl]phenyl}-1,3,5-triazine-2,4-diamine trifluoroacetate]", "IC50": "501 to 1000"},
      {"smiles": "Cc1n[nH]c2cc(N(C)c3ncnc(Nc4cccc(CS(C)(=O)=O)c4)n3)ccc12", "note": "[Example 16, N^2-methyl-N^2-(3-methyl-1H-indazol-6-yl)-N^4-{3-[(methylsulfonyl)methyl]phenyl}-1,3,5-triazine-2,4-diamine hydrochloride]", "IC50": "201 to 500"},
      {"smiles": "CCS(=O)(=O)c1ccc(OC)c(Nc2ncnc(N(C)c3ccc4c(C)n[nH]c4c3)n2)c1", "note": "[Example 17, N^2-[5-(ethylsulfonyl)-2-methoxyphenyl]-N^4-methyl-N^4-(3-methyl-1H-indazol-6-yl)-1,3,5-triazine-2,4-diamine hydrochloride]", "IC50": "501 to 1000"},
      {"smiles": "Cc1ccc(Nc2ncnc(N(C)c3ccc4c(C)n[nH]c4c3)n2)cc1NS(C)(=O)=O", "note": "[Example 18, N-[2-methyl-5-({4-[methyl(3-methyl-1H-indazol-6-yl)amino]-1,3,5-triazin-2-yl}amino)phenyl]methanesulfonamide]", "IC50": "501 to 1000"},
      {"smiles": "Cc1n[nH]c2cc(N(C)c3ncnc(Nc4cccc(S(C)(=O)=O)c4)n3)ccc12", "note": "[Example 19, N^2-methyl-N^2-(3-methyl-1H-indazol-6-yl)-N^4-[3-(methylsulfonyl)phenyl]-1,3,5-triazine-2,4-diamine]", "IC50": "201 to 500"},
      {"smiles": "CC(=O)Nc1ccc(Nc2ncnc(N(C)c3ccc4c(C)n[nH]c4c3)n2)cc1", "note": "[Example 20, N-[4-({4-[methyl(3-methyl-1H-indazol-6-yl)amino]-1,3,5-triazin-2-yl}amino)phenyl]acetamide hydrochloride]", "IC50": "> 1000"},
      {"smiles": "Cc1n[nH]c2cc(N(C)c3ccnc(Nc4cccc(S(N)(=O)=O)c4)n3)ccc12", "note": "[Example 21, 3-({4-[methyl(3-methyl-1H-indazol-6-yl)amino]-2-pyrimidinyl}amino)benzenesulfonamide hydrochloride]", "IC50": "1 to 200"},
      {"smiles": "CCS(=O)(=O)c1ccc(OC)c(Nc2nccc(N(C)c3ccc4c(C)n[nH]c4c3)n2)c1", "note": "[Example 22, N^2-[5-(ethylsulfonyl)-2-methoxyphenyl]-N^4-methyl-N^4-(3-methyl-1H-indazol-6-yl)-2,4-pyrimidinediamine]", "IC50": "1 to 200"},
      {"smiles": "Cc1n[nH]c2cc(N(C)c3ccnc(Nc4cccc(CS(C)(=O)=O)c4)n3)ccc12", "note": "[Example 23, N^4-methyl-N^4-(3-methyl-1H-indazol-6-yl)-N^2-{3-[(methylsulfonyl)methyl]phenyl}-2,4-pyrimidinediamine]", "IC50": "1 to 200"},
      {"smiles": "Cc1n[nH]c2cc(N(C)c3ccnc(Nc4cccc(S(=O)(=O)NC(C)C)c4)n3)ccc12", "note": "[Example 24, N-isopropyl-3-({4-[methyl(3-methyl-1H-indazol-6-yl)amino]-2-pyrimidinyl}amino)benzenesulfonamide]", "IC50": "1 to 200"},
      {"smiles": "Cc1n[nH]c2cc(N(C)c3ccnc(Nc4cccc(S(=O)(=O)NC5CC5)c4)n3)ccc12", "note": "[Example 25, N-cyclopropyl-3-({4-[methyl(3-methyl-1H-indazol-6-yl)amino]-2-pyrimidinyl}amino)benzenesulfonamide]", "IC50": "1 to 200"},
      {"smiles": "CCN(c1ccc2c(C)n[nH]c2c1)c1ccnc(Nc2cc(S(=O)(=O)CC)ccc2OC)n1", "note": "[Example 26, N^4-ethyl-N^2-[5-(ethylsulfonyl)-2-methoxyphenyl]-N^4-(3-methyl-1H-indazol-6-yl)-2,4-pyrimidinediamine]", "IC50": "201 to 500"},
      {"smiles": "Cc1n[nH]c2cc(N(C)c3ccnc(Nc4cccc(NS(C)(=O)=O)c4)n3)ccc12", "note": "[Example 27, N-[3-({4-[methyl(3-methyl-1H-indazol-6-yl)amino]-2-pyrimidinyl}amino)phenyl]methanesulfonamide]", "IC50": "1 to 200"},
      {"smiles": "Cc1n[nH]c2cc(N(C)c3ccnc(Nc4cccc(CS(=O)(=O)C(C)C)c4)n3)ccc12", "note": "[Example 28, N^2-{3-[(isopropylsulfonyl)methyl]phenyl}-N^4-methyl-N^4-(3-methyl-1H-indazol-6-yl)-2,4-pyrimidinediamine]", "IC50": "1 to 200"},
      {"smiles": "Cc1n[nH]c2cc(N(C)c3ccnc(Nc4ccc(CS(=O)(=O)C(C)C)cc4)n3)ccc12", "note": "[Example 29, N^2-{4-[(isopropylsulfonyl)methyl]phenyl}-N^4-methyl-N^4-(3-methyl-1H-indazol-6-yl)-2,4-pyrimidinediamine]", "IC50": "1 to 200"},
      {"smiles": "COc1ccc(S(=O)(=O)CC(C)C)cc1Nc1nccc(Nc2ccc3c(C)n[nH]c3c2)n1", "note": "[Example 30, N^2-[5-(isobutylsulfonyl)-2-methoxyphenyl]-N^4-(3-methyl-1H-indazol-6-yl)-2,4-pyrimidinediamine]", "IC50": "501 to 1000"},
      {"smiles": "CC(=O)Nc1cccc(Nc2nccc(N(C)c3ccc4c(C)n[nH]c4c3)n2)c1", "note": "[Example 31, N-[3-({4-[methyl(3-methyl-1H-indazol-6-yl)amino]-2-pyrimidinyl}amino)phenyl]acetamide]", "IC50": "1 to 200"}
    ]}
  ]
}
